Source: patent publication US4748116A, “Peptide substrates for determination of protease activity” (KabiVitrum AB, priority 1980, dated 1988)
Counter-ions that a name gives are not always drawn.

Conditions: pH 8.3

## CC(C)C[C@H](NC(=O)[C@@H](NC(=O)OC(C)(C)C)C(C)C)C(=O)N[C@@H](CCCCN)C(=O)Nc1ccc2c(=O)[nH][nH]c(=O)c2c1 [XXI, Boc--Val--Leu--Lys--Isl.HCl]
  stability of substrate: very stable
